We go through 7 molecules from patent US20240131167A1, “EGFR Degraders and Associated Methods of Use” (BeiGene Switzerland GmbH, priority 2021, published 2024).

What is called DC50 is the concentration giving 50% degradation. A high value points to a less potent degrader. For orientation: Dmax means the largest share of the target that was removed. Read a low Dmax as a partial loss of target.

Experiment [1] concerns EGFR (Del19/T790M/C797S) in H1975-clone #28 cells. The experiment can be described thus: Cell degradation of EGFR, HTRF assay, H1975-clone #28 cells. In kind it is cell-based. The settings on record: H1975-clone #28 (Del19/T790M/C797S, homozygous), 16 h treatment; for DC50: HTRF; for Dmax H1975 #28: maximum percentage of inhibition (degradation). On the procedure: (§1) BaF3-LTC (L858R/T790M/C797S) cells are treated with compounds diluted in 0.2% DMSO cell culture medium and incubate for 16 h, 37° C., 5% CO2. H1975-#28 cells are treated with compounds diluted in 0.2% DMSO cell culture medium on day 2, incubate for 16 h, 37° C., 5% CO2, the final concentration of compounds in all assay is start with 10 uM, 4-fold dilution, total 8 doses were included.
(§2) After 16 h treatment, add HTRF lysis buffer to each well; seal the plate and incubate 1 hour at room temperature on a plate shaker. Once the cells are lysed, 16 μL of cell lysate are transferred to a PE 384-well HTRF detection plate: 4 μL of pre-mixed HTRF antibodies are added to each well; Cover the plate with a plate sealer, spin 1000 rpm for 1 min, Incubate overnight at room temperature; Read on BMG PheraStar with HTRF protocol (337 nm-665 nm-620 nm).
(§3) The inhibition (degradation) percentage of the compound was calculated by the following equation: […]
(§4) The IC50 (DC50) value of a compound can be obtained by fitting the following equation
(§5) Y=Bottom+(TOP−Bottom)/(1+((IC50/X)^hillslope))
(§6) Wherein, X and Y are known values, and IC50. Hillslope, Top and Bottom are the parameters obtained by fitting with software. Y is the inhibition percentage (calculated from the equation), X is the concentration of the compound; IC50 is the concentration of the compound when the 50% inhibition is reached. The smaller the IC50 value is, the stronger the inhibitory ability of the compound is. Vice versa, the higher the IC50 value is, the weaker the ability the inhibitory ability of the compound is; Hillslope represents the slope of the fitted curve, generally around 1*; Bottom represents the minimum value of the curve obtained by data fitting, which is generally 0%±20%. Top represents the maximum value of the curve obtained by data fitting, which is generally 100%±20%. The experimental data were fitted by calculating and analyzing with Dotmatics data analysis software.
(Time-resolved FRET reads energy transfer from a long-lived donor to a nearby acceptor.)

In experiment [2] the target is T1, EGFR (L858R/T790M/C797S) in BaF3-LTC cells (Homo sapiens, UniProt P00533, C797S/L858R/T790M).
T1 construct: expressed in transfected cells; host or cells: BaF3-LTC
T1 sequence (P00533 25-1210 T790M/C797S/L858R): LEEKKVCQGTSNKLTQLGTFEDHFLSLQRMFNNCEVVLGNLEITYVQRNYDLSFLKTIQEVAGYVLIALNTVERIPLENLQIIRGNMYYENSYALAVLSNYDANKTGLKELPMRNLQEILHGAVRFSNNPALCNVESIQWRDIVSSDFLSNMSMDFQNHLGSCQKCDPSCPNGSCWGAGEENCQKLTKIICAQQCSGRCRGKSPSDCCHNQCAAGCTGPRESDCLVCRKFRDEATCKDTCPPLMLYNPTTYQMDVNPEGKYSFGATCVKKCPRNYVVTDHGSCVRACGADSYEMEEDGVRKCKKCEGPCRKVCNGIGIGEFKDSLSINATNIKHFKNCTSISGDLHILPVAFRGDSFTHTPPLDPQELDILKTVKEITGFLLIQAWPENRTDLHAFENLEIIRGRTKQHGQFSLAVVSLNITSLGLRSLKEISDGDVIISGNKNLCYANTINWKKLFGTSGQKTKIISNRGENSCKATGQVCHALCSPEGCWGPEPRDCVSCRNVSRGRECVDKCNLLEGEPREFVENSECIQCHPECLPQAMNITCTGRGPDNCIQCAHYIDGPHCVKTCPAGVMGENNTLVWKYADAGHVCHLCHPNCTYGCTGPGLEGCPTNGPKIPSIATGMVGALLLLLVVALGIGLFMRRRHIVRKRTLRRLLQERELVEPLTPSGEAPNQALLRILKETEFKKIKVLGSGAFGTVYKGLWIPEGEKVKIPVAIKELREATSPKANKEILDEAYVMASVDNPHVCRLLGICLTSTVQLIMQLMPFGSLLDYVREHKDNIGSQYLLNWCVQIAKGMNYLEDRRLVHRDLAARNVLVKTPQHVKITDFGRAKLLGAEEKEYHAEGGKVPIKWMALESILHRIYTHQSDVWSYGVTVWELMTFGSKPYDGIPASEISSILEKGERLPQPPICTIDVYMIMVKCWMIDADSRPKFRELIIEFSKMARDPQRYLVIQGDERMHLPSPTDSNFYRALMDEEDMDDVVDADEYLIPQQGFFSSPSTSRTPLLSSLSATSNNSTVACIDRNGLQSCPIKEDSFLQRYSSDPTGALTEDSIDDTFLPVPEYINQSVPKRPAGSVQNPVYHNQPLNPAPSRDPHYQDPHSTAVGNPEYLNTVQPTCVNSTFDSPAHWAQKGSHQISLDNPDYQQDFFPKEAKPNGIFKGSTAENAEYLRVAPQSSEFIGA
The experiment can be described thus: Cell degradation of EGFR, HTRF assay, BaF3-LTC cells. The settings on record: 16 h treatment; for DC50: HTRF; for Dmax: maximum percentage of inhibition (degradation). In kind it is cell-based. On the procedure: as §1, §2, §3, §4, §5, §6

For the molecule `CCc1cc(Nc2ncc(Br)c(Nc3ccc4nc(C)ccc4c3P3(=O)CCCC3)n2)c(OC)cc1N1CCC(N2CCN(CCc3cccc4c3C(C)(C)C(=O)N4C3CCC(=O)NC3=O)CC2)CC1` (stereo not shown) [Example 73, 3-(4-(2-(4-(1-(4-((5-bromo-4-((2-methyl-5-(1-oxidophospholan-1-yl)quinolin-6-yl)amino)pyrimidin-2-yl)amino)-2-ethyl-5-methoxyphenyl)piperidin-4-yl)piperazin-1-yl)ethyl)-3,3-dimethyl-2-oxoindolin-1-yl)piperidine-2,6-dione], in experiment [1], the DC50 was 0.66 nM and the “Dmax H1975 #28” value stood at 78.13%. In experiment [2], the DC50 was 7.52 nM and the maximal degradation (Dmax) worked out at 89.9%.

With `CCc1cc(Nc2ncc(Br)c(Nc3ccccc3P3(=O)CCCC3)n2)c(OC)cc1N1CCC(N2CCN(C(=O)[C@@H]3CCN(c4cc(F)c(C5CCC(=O)NC5=O)c(F)c4)C3)CC2)CC1` (stereo partly drawn) [Example 111, 3-(4-((R)-3-(4-(1-(4-((5-bromo-4-((2-(1-oxidophospholan-1-yl)phenyl)amino)pyrimidin-2-yl)amino)-2-ethyl-5-methoxyphenyl)piperidin-4-yl)piperazine-1-carbonyl)pyrrolidin-1-yl)-2,6-difluorophenyl)piperidine-2,6-dione], in experiment [1], the DC50 is 4.31 nM and the “Dmax H1975 #28” value is given as 87.16%. Also, in experiment [2], half-maximal degradation (DC50) was put at 26.8 nM and the Dmax came out at 90.3%.

For `CCc1cc(Nc2ncc(Br)c(Nc3ccc4nc(C)ccc4c3P3(=O)CC=CC3)n2)c(OC)cc1N1CCC(N2CCN(CCc3ccc4c(c3)oc(=O)n4C3CCC(=O)NC3=O)CC2)CC1` (stereo not shown) [Example 145, 3-(6-(2-(4-(1-(4-((5-bromo-4-((2-methyl-5-(1-oxido-2,5-dihydrophosphol-1-yl)quinolin-6-yl)amino)pyrimidin-2-yl)amino)-2-ethyl-5-methoxyphenyl)piperidin-4-yl)piperazin-1-yl)ethyl)-2-oxobenzo[d]oxazol-3(2H)-yl)piperidine-2,6-dione], in experiment [1], the DC50 is 0.77 nM and the “Dmax H1975 #28” value was 75.97%. In addition, in experiment [2], half-maximal degradation (DC50) was put at 1.82 nM and the Dmax worked out at 91.8%.

For the molecule `CCc1cc(Nc2ncc(Br)c(Nc3ccc4nc(C)ccc4c3P3(=O)CCCC3)n2)c(OC)cc1N1CCC(N2CCN(CCc3ccc4c(c3)oc(=O)n4C3CCC(=O)NC3=O)CC2)CC1` (stereo not shown) [Example 71, 3-(6-(2-(4-(1-(4-((5-bromo-4-((2-methyl-5-(1-oxidophospholan-1-yl)quinolin-6-yl)amino)pyrimidin-2-yl)amino)-2-ethyl-5-methoxyphenyl)piperidin-4-yl)piperazin-1-yl)ethyl)-2-oxobenzo[d]oxazol-3(2H)-yl)piperidine-2,6-dione], in experiment [1], it took 1.38 nM to reach half-maximal degradation (DC50) and the “Dmax H1975 #28” value came out at 72.97%. In experiment [2], this molecule had a DC50 of 2.51 nM and a Dmax of 88.6%.

For the molecule `CCc1cc(Nc2ncc(Br)c(Nc3ccccc3P3(=O)CCCC3)n2)c(OC)cc1N1CCC(N2CCN(C(=O)C3CN(c4cc(F)c(C5CCC(=O)NC5=O)c(F)c4)C3)CC2)CC1` (stereo not shown) [Example 148, 3-(4-(3-(4-(1-(4-((5-bromo-4-((2-(1-oxidophospholan-1-yl)phenyl)amino)pyrimidin-2-yl)amino)-2-ethyl-5-methoxyphenyl)piperidin-4-yl)piperazine-1-carbonyl)azetidin-1-yl)-2,6-difluorophenyl)piperidine-2,6-dione], in experiment [1], it took 2.99 nM to reach half-maximal degradation (DC50) and the “Dmax H1975 #28” value was 78.19%. In experiment [2], this molecule returned a DC50 of 19.8 nM and a Dmax of 90.2%.

`CCc1cc(Nc2ncc(Br)c(Nc3ccccc3P3(=O)CCCC3)n2)c(OC)cc1N1CCC(N2CCN(CCc3cc(F)c(C4CCC(=O)NC4=O)c(F)c3)CC2)CC1` (stereo not shown) [Example 147, 3-(4-(2-(4-(1-(4-((5-bromo-4-((2-(1-oxidophospholan-1-yl)phenyl)amino)pyrimidin-2-yl)amino)-2-ethyl-5-methoxyphenyl)piperidin-4-yl)piperazin-1-yl)ethyl)-2,6-difluorophenyl)piperidine-2,6-dione]: in experiment [1], the DC50 came out at 3.15 nM and the “Dmax H1975 #28” value was found to be 82.21%. Also, in experiment [2], the half-maximal degradation concentration (DC50) was 75.1 nM and the Dmax worked out at 86.6%.

`CCc1cc(Nc2ncc(Br)c(Nc3ccc4nc(C)ccc4c3P3(=O)CCCC3)n2)c(OC)cc1N1CCC(N2CCN(CCc3cccc4c3n(C)c(=O)n4C3CCC(=O)NC3=O)CC2)CC1` (stereo not shown) [Example 68, 3-(4-(2-(4-(1-(4-((5-bromo-4-((2-methyl-5-(1-oxidophospholan-1-yl)quinolin-6-yl)amino)pyrimidin-2-yl)amino)-2-ethyl-5-methoxyphenyl)piperidin-4-yl)piperazin-1-yl)ethyl)-3-methyl-2-oxo-2,3-dihydro-1H-benzo[d]imidazol-1-yl)piperidine-2,6-dione]: in experiment [1], the DC50 stood at 1.34 nM and the “Dmax H1975 #28” value worked out at 85.88%. Moreover, in experiment [2], it took 3.46 nM to reach half-maximal degradation (DC50) and the greatest degradation seen (Dmax) is 90.8%.
